Assay results from ChEMBL document CHEMBL4699440, “Comprehensive review on the anti-bacterial activity of 1,2,3-triazole hybrids” (Eur J Med Chem, 2019).
≈ marks a conversion by molar mass, not a printed value. Blank lines part the entries; values can stand above or below the compound they belong to.

What was measured:
Escherichia coli [1] = test: Antibacterial activity against Escherichia coli ATCC 25922 after overnight incubation by CLSI M7-A9 based method; type: functional
Enterococcus faecalis [2] = test: Antibacterial activity against Enterococcus faecalis ATCC 29212 after overnight incubation by CLSI M7-A9 based method; type: functional
[3] = test system: Staphylococcus epidermidis; test: Antibacterial activity against methicillin-resistant Staphylococcus epidermidis 13-3; type: functional
Staphylococcus aureus [4] = test: Antibacterial activity against methicillin-sensitive Staphylococcus aureus ATCC 29213; type: functional
[5] = test system: Staphylococcus epidermidis; test: Antibacterial activity against methicillin-sensitive Staphylococcus epidermidis ATCC 12228; type: functional
Staphylococcus aureus [6] = test: Antibacterial activity against methicillin-resistant Staphylococcus aureus ATCC 33591; type: functional
Enterococcus faecalis [7] = test: Antibacterial activity against Enterococcus faecalis ATCC 51299; type: functional
Enterococcus faecium [8] = test: Antibacterial activity against Enterococcus faecium ATCC 700221; type: functional
Enterococcus faecium [9] = test: Antibacterial activity against Enterococcus faecium 13-7; type: functional
Escherichia coli [10] = test: Antibacterial activity against Escherichia coli 14-11; type: functional
Klebsiella pneumoniae [11] = test: Antibacterial activity against Klebsiella pneumoniae ATCC 700603; type: functional
Klebsiella pneumoniae [12] = test: Antibacterial activity against Klebsiella pneumoniae 7; type: functional
Pseudomonas aeruginosa [13] = test: Antibacterial activity against Pseudomonas aeruginosa ATCC 27853; type: functional
[14] = test system: Acinetobacter calcoaceticus; test: Antibacterial activity against Acinetobacter calcoaceticus ATCC 19606; type: functional
Enterobacter cloacae = test: Antibacterial activity against Enterobacter cloacae ATCC 43560; type: functional
Klebsiella aerogenes = test: Antibacterial activity against Enterobacter aerogenes ATCC 13048; type: functional
Serratia marcescens = test: Antibacterial activity against Serratia marcescens ATCC 21074; type: functional
Morganella morganii = test: Antibacterial activity against Morganella morganii ATCC 25830; type: functional
Providencia rettgeri = test: Antibacterial activity against Providencia rettgeri ATCC 31052; type: functional
Proteus vulgaris [15] = test: Antibacterial activity against Proteus vulgaris ATCC 29905; type: functional
Proteus mirabilis = test: Antibacterial activity against Proteus mirabilis 13-1; type: functional
[16] = test system: Stenotrophomonas maltophilia; test: Antibacterial activity against Stenotrophomonas maltophilia ATCC 13636; type: functional
Citrobacter freundii = test: Antibacterial activity against Citrobacter freundii ATCC 43864; type: functional
Escherichia coli [17] = test: Antibacterial activity against Escherichia coli ATCC 25922 assessed as inhibition zone; type: functional
Pseudomonas aeruginosa [18] = test: Antibacterial activity against Pseudomonas aeruginosa ATCC 27853 assessed as inhibition zone; type: functional
Proteus vulgaris [19] = test: Antibacterial activity against Proteus vulgaris ATCC 4636 assessed as inhibition zone; type: functional
Staphylococcus aureus [20] = test: Antibacterial activity against Staphylococcus aureus ATCC 25923 assessed as inhibition zone; type: functional
Bacillus spizizenii [21] = test: Antibacterial activity against Bacillus subtilis ATCC 6633 assessed as inhibition zone; type: functional
Bacillus cereus [22] = test: Antibacterial activity against Bacillus cereus RCMB-010067 assessed as diameter of inhibition zone at 5 mg/ml by diffusion technique; type: functional; details: read-out: IZ
Staphylococcus aureus [23] = test: Antibacterial activity against Staphylococcus aureus RCMB-010010 assessed as diameter of inhibition zone at 5 mg/ml by diffusion technique; type: functional; details: read-out: IZ
Staphylococcus aureus [24] = test: Antibacterial activity against Staphylococcus aureus ATCC 29737 incubated for 24 hrs; type: functional
Micrococcus luteus [25] = test: Antibacterial activity against Micrococcus Luteus ATCC 398 incubated for 24 hrs; type: functional
Bacillus cereus [26] = test: Antibacterial activity against Bacillus cereus ATCC 6630 incubated for 24 hrs; type: functional
Pseudomonas fluorescens = test: Antibacterial activity against Pseudomonas fluorescens NCIM 2173 incubated for 24 hrs; type: functional
[27] = test system: Sphingomonas paucimobilis; test: Antibacterial activity against Flavobacterium devorans ATCC 10829 incubated for 24 hrs; type: functional
Bacillus spizizenii [28] = test: Antibacterial activity against Bacillus subtilis ATCC 6633 incubated for 24 hrs by broth dilution method; type: functional
Escherichia coli [29] = test: Antibacterial activity against Escherichia coli ATCC 25922 incubated for 24 hrs by broth dilution method; type: functional
Staphylococcus aureus [30] = test: Antibacterial activity against Staphylococcus aureus ATCC 6538p incubated for 24 hrs by broth dilution method; type: functional
Micrococcus luteus [31] = test: Antibacterial activity against Micrococcus luteus IFC 12708 incubated for 24 hrs by broth dilution method; type: functional
Proteus vulgaris [32] = test: Antibacterial activity against Proteus vulgaris ATCC 3851 incubated for 24 hrs by broth dilution method; type: functional
Salmonella typhimurium = test: Antibacterial activity against Salmonella typhimurium ATCC 14028 incubated for 24 hrs by broth dilution method; type: functional, Salmonella enterica subsp. enterica serovar Typhimurium; details: Salmonella enterica

SMILES: C[C@H]1COc2c(N3CCN(C)CC3)c(F)cc3c(=O)c(C(=O)O)cn1c23.C[C@H]1COc2c(N3CCN(C)CC3)c(F)cc3c(=O)c(C(=O)O)cn1c23.O [LEVOFLOXACIN]
- MIC (Escherichia coli [1]): ≤ 0.03 µg/mL
- MIC (Enterococcus faecalis [2]): ≤ 0.03 µg/mL
- MIC [3]: ≤ 0.03 µg/mL
- MIC (Staphylococcus aureus [4]): ≤ 0.03 µg/mL
- MIC [5]: ≤ 0.03 µg/mL
- MIC (Staphylococcus aureus [6]): ≤ 0.03 µg/mL
- MIC (Enterococcus faecalis [7]): ≤ 0.03 µg/mL
- MIC (Enterococcus faecium [8]): ≤ 0.03 µg/mL
- MIC (Enterococcus faecium [9]): ≤ 0.03 µg/mL
- MIC (Escherichia coli [10]): ≤ 0.03 µg/mL
- MIC (Klebsiella pneumoniae [11]): ≤ 0.03 µg/mL
- MIC (Klebsiella pneumoniae [12]): ≤ 0.03 µg/mL
- MIC (Pseudomonas aeruginosa [13]): ≤ 0.03 µg/mL
- MIC [14]: ≤ 0.03 µg/mL
- MIC (Enterobacter cloacae): ≤ 0.03 µg/mL
- MIC (Klebsiella aerogenes): ≤ 0.03 µg/mL
- MIC (Serratia marcescens): ≤ 0.03 µg/mL
- MIC (Morganella morganii): ≤ 0.03 µg/mL
- MIC (Providencia rettgeri): ≤ 0.03 µg/mL
- MIC (Proteus vulgaris [15]): ≤ 0.03 µg/mL
- MIC (Proteus mirabilis): ≤ 0.03 µg/mL
- MIC [16]: ≤ 0.03 µg/mL
- MIC (Citrobacter freundii): ≤ 0.03 µg/mL

SMILES: O=C(OCc1cn(Cc2cccc(F)c2)nn1)c1cccc2c(=O)c3ccccc3[nH]c12
- inhibition zone (IZ) (Escherichia coli [17]): 9.5 mm
- inhibition zone (IZ) (Pseudomonas aeruginosa [18]): 9.5 mm
- inhibition zone (IZ) (Proteus vulgaris [19]): 9.5 mm
- inhibition zone (IZ) (Staphylococcus aureus [20]): 9.5 mm
- inhibition zone (IZ) (Bacillus spizizenii [21]): 9.5 mm

SMILES: CC1(C)S[C@@H]2[C@H](NC(=O)[C@H](N)c3ccccc3)C(=O)N2[C@H]1C(=O)O [AMPICILLIN]
- zone of inhibition at 5000 µg/mL (Bacillus cereus [22]): 23.8 mm
- zone of inhibition at 5000 µg/mL (Staphylococcus aureus [23]): 32.4 mm
- MIC (Staphylococcus aureus [24]): 2 µg/mL (≈ 5.72 µM)
- MIC (Micrococcus luteus [25]): 2 µg/mL (≈ 5.72 µM)
- MIC (Bacillus cereus [26]): 2 µg/mL (≈ 5.72 µM)
- MIC (Pseudomonas fluorescens): 2 µg/mL (≈ 5.72 µM)
- MIC [27]: 2 µg/mL (≈ 5.72 µM)
- MIC (Bacillus spizizenii [28]): 1.56 µg/mL (≈ 4.46 µM)
- MIC (Escherichia coli [29]): 1.56 µg/mL (≈ 4.46 µM)
- MIC (Staphylococcus aureus [30]): 1.56 µg/mL (≈ 4.46 µM)
- MIC (Micrococcus luteus [31]): 1.56 µg/mL (≈ 4.46 µM)
- MIC (Proteus vulgaris [32]): 1.56 µg/mL (≈ 4.46 µM)
- MIC (Salmonella typhimurium): 1.56 µg/mL (≈ 4.46 µM)

- MIC (Bacillus spizizenii [28]): 1.56 µg/mL (≈ 2.25 µM)
- MIC (Escherichia coli [29]): 1.56 µg/mL (≈ 2.25 µM)
- MIC (Staphylococcus aureus [30]): 1.56 µg/mL (≈ 2.25 µM)
- MIC (Micrococcus luteus [31]): 1.56 µg/mL (≈ 2.25 µM)
- MIC (Proteus vulgaris [32]): 1.56 µg/mL (≈ 2.25 µM)
- MIC (Salmonella typhimurium): 1.56 µg/mL (≈ 2.25 µM)
SMILES: CC1(C)O[C@H]2O[C@@H]([C@H]3SC(Cc4nc5ccccc5[nH]4)C(=O)N3c3ccc(Cl)cc3)[C@@H](OCc3cn(-c4ccc(Cl)cc4)nn3)[C@H]2O1 (stereo not given in full)

SMILES: CC(O)C(=O)O.CCOc1ccc2nc3cc(N)ccc3c(N)c2c1
- inhibition zone (IZ) (Escherichia coli [17]): 12 mm
- inhibition zone (IZ) (Pseudomonas aeruginosa [18]): 12 mm
- inhibition zone (IZ) (Proteus vulgaris [19]): 12 mm
- inhibition zone (IZ) (Staphylococcus aureus [20]): 12 mm
- inhibition zone (IZ) (Bacillus spizizenii [21]): 12 mm

SMILES: COc1c(N2CCN(CCn3ccnn3)CC2)c(F)cc2c(=O)c(C(=O)O)cn(C3CC3)c12
- MIC (Escherichia coli [1]): ≥ 0.5 µg/mL
- MIC (Enterococcus faecalis [2]): ≥ 0.5 µg/mL
- MIC [3]: ≥ 0.5 µg/mL
- MIC (Staphylococcus aureus [4]): ≥ 0.5 µg/mL
- MIC [5]: ≥ 0.5 µg/mL
- MIC (Staphylococcus aureus [6]): ≥ 0.5 µg/mL
- MIC (Enterococcus faecalis [7]): ≥ 0.5 µg/mL
- MIC (Enterococcus faecium [8]): ≥ 0.5 µg/mL
- MIC (Enterococcus faecium [9]): ≥ 0.5 µg/mL
- MIC (Escherichia coli [10]): ≥ 0.5 µg/mL
- MIC (Klebsiella pneumoniae [11]): ≥ 0.5 µg/mL
- MIC (Klebsiella pneumoniae [12]): ≥ 0.5 µg/mL
- MIC (Pseudomonas aeruginosa [13]): ≥ 0.5 µg/mL
- MIC [14]: ≥ 0.5 µg/mL
- MIC (Enterobacter cloacae): ≥ 0.5 µg/mL
- MIC (Klebsiella aerogenes): ≥ 0.5 µg/mL
- MIC (Serratia marcescens): ≥ 0.5 µg/mL
- MIC (Morganella morganii): ≥ 0.5 µg/mL
- MIC (Providencia rettgeri): ≥ 0.5 µg/mL
- MIC (Proteus vulgaris [15]): ≥ 0.5 µg/mL
- MIC (Proteus mirabilis): ≥ 0.5 µg/mL
- MIC [16]: ≥ 0.5 µg/mL
- MIC (Citrobacter freundii): ≥ 0.5 µg/mL
